Among the data in patent publication US20240150346A1, “CLASS OF HETEROAROMATIC COMPOUND, PREPARATION METHOD THEREFOR AND USE THEREOF” (INNOVSTONE THERAPEUTICS LIMITED, priority 2021, published 2024) are EC50 values, retold here.

SMILES strings stand for the structures. Structures can show the parent of a compound that is named as a salt. Where two headings read alike, the source gives them in different places.

The assay has as its target T1, human-derived receptor TLR7 (Homo sapiens, UniProt Q9NYK1).
T1 construct: host or cells: HEK-Blue hTLR7 cells (HEK293-derived reporter line)
T1 sequence (Q9NYK1 27-1049): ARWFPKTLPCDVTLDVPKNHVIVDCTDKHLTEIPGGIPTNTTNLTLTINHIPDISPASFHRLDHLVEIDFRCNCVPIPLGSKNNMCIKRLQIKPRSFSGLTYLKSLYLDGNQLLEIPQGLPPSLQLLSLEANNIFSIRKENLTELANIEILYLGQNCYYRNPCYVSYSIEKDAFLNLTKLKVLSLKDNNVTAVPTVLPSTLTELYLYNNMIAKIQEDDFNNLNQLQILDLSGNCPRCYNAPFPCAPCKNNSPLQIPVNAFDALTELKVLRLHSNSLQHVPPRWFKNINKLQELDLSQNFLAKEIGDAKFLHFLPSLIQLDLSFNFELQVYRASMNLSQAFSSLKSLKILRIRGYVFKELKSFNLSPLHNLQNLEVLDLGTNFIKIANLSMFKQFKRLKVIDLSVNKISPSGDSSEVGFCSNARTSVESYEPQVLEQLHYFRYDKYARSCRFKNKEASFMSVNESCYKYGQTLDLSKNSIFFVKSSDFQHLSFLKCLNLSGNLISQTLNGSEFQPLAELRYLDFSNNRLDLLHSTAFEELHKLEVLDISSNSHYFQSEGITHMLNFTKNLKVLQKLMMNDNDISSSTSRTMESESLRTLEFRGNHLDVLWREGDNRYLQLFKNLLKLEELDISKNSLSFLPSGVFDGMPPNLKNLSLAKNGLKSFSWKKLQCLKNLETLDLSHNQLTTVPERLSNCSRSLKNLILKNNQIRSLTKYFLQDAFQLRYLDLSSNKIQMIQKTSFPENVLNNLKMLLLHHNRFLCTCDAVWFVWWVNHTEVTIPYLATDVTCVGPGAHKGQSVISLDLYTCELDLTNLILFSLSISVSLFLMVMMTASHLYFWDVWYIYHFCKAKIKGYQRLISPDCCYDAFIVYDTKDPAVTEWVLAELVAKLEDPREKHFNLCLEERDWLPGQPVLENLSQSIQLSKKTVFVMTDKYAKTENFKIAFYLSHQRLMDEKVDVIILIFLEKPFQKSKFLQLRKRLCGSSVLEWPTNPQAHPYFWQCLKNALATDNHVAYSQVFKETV
Put plainly: Assay on agonistic activity for human-derived receptor TLR7 (HEK-Blue hTLR7 cells, HEK-Blue Detection Medium). It counts as cell-based. Particulars: 16 h incubation, absorbance at 655 nm. The method, then: HEK-Blue™ hTLR7 cells (InvivoGen, hkb-htlr7) were cultured in a DMEM complete medium (Gibco, 12100) containing 10% FBS (Invitrogen, 10099141), 1% P/S (Invitrogen, 15140122), 10 μg/mL Blasticidin (InvivoGen, ant-bl-1), 100 μg/mL Zeocin (InvivoGen, ant-zn-1), and 100 μg/mL Normocin (InvivoGen, ant-nr-1). The cells were cultured in an incubator at 37° C. with 5% CO2. When HEK-Blue™ hTLR7 cells reached a growth density of 70%-80%, cell passage was needed.
The agonistic activity for the human-derived receptor TLR7 by HEK-Blue™ hTLR7 cells was assayed by HEK-Blue™ Detection Medium (InvivoGen, hd-det2). First, a bag of HEK-Blue™ Detection Medium powder was dissolved in 50 mL of ultra-pure sterile water for complete dissolution, and then the dissolved medium was filtered into a new 50 mL centrifuge tube through a 0.22 μm filter. Finally, antibiotics were added into the filtered detection medium until the final concentration was 1% for P/S and 100 μg/mL for Normocin. HEK-Blue™ Detection Medium was pre-heated to 37° C. in advance on the day of the assay on the activity for the TLR7 receptor, and the temperature was always maintained at 37° C.
The compound powder was dissolved in 100% DMSO (Sigma, D2650-100ML) to obtain a 10 mM stock solution, and the compound was completely dissolved by shaking with an oscillator. The stock solution of the compound was subjected to a 5-fold dilution to 2 mM with 100% DMSO. This was followed by a 3-fold serial dilution for a total of 8 concentration gradients. Then, each of the concentration gradients was subjected to a 20-fold dilution to 100 μM, 33.3 μM, 11.1 μM, 3.7 μM, 1.23 μM, […], 0.114 μM, and 0.05 μM using HEK-Blue™ Detection Medium. 20 μL of each of the dilutions was added to a 96-well cell culture plate (Corning, 3599).
On the day of the assay on the agonistic activity for the human-detived receptor TLR7, HEK-Blue™ hTLR7 cells has a growth density of 70%-80%, and the cell medium was removed. 1 mL of cell dissociation buffer (Gibco, 13151-014) was added to each 100 mm cell culture dish, and the cells were incubated in an incubator at 37° C. for 5 min. The cells were pipetted using a DMEM cell medium to obtain a single cell suspension, which was then centrifuged at 1000 rpm for 10 min to collect the cell pellet. The cell pellet was resuspended with HEK-Blue™ Detection Medium pre heated to 37° C. The cells were counted and diluted to 220,000 cells/mL. Finally, 180 μL of cell suspension (40,000 cells/well) was added to each well of the 96-well cell culture plate to which the compound had been added, and the cell suspension was mixed with the compound using a pipettor. Final concentrations of the compound were 10 μM, 3.3 μM, 1.1 μM, 0.37 μM, 0.12 μM, 0.04 μM, 0.01 μM, and 0.005 μM. After incubation in an incubator at 37° C. for 16 h, the absorbance was read at 655 nm using an M5e microplate reader (MD, USA).
The EC50 of the compound was calculated using the software GraphPad Prism (GraphPad Software, USA). The background reading of the detection culture was subtracted from the absorbance readings at 655 nm of all wells of the 96-well plate, the ratio of each well to the negative control well (the well without the compound) was calculated, and then the percentage of the ratio of each well to the positive control well (the well treated with 10 μM positive compound), i.e., the percentage of activity, was calculated. Finally, the sigmoidal dose-response (variable slope) curve between the percentage of activity and the concentration of the compound was calculated using the software GraphPad Prism to calculate the EC50 of the compound. […]

Turning to `CSc1nc2c(N)nc3ccccc3c2n1Cc1ccc(CN2CCCC2)cc1` [Example 40, 2-(methylthio)-1-(4-(pyrrolidin-1-ylmethyl)benzyl)-1H-imidazo[4,5-c]quinoline-4-amine], the 50% effective concentration (EC50) runs as follows: (read-out: EC50) under 50 nM; (read-out: hTLR7 EC50) 55 nM. For the compound `CSc1nc2c(N)nc3ccccc3c2n1Cc1ccc(N2CCN(C)CC2)nc1` [Example 199], the EC50 by setting is: (read-out: EC50) under 50 nM; (read-out: hTLR7 EC50) 43.6 nM. In the case of `COc1nc2c(N)nc3ccccc3c2n1Cc1ccc(CN2CCCC2)cc1` [Comparative Example 1, 2-methoxy-1-((4-((pyrrolidin-1-yl)methyl)phenyl)methyl)-1H-imidazo[4,5-c]quinolin-4-amine trifluoroacetate, reference compound], the 50% effective concentration (EC50) (read-out: hTLR7 EC50) is over 10000 nM. `COc1cc(CN(C)C)ccc1Cn1c(SC)nc2c(N)nc3ccccc3c21` [Example 240]: the EC50 was under 50 nM (read-out: EC50) and 28.4 nM (read-out: hTLR7 EC50).

The EC50 is the concentration at which the effect is half-maximal.
